Tested on: 252836-082-R-J2-PDC tumor spheroids, viability
Assay: Anticancer human tumor 252836-082-R-J2-PDC patient-derived head and neck squamous cell carcinoma cell line growth inhibition [PI3K]
Conditions: spheroids with HUVEC and MSC; for IC50: curve of first compound; for viability, T/C: stronger effect = lower value
Method in brief: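 Three cell types, namely tumor cells, endothelial cells and mesenchymal stem cells, formed each spheroid. Combinations with four PI3K inhibitors were screened at clinically achievable concentrations decreasing by half-log, and spheroid viability was recorded.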

[1] = second compound 0.0316 µM, first compound 0.0316 µM
[2] = second compound 0.0316 µM, first compound 0.1 µM
[3] = second compound 0.0316 µM, first compound 0.316 µM
[4] = second compound 0.0316 µM, first compound 1 µM
[5] = second compound 0.0316 µM, first compound 3.16 µM
[6] = second compound 0.0316 µM, first compound 10 µM
[7] = second compound 0.1 µM, first compound 0.0316 µM
[8] = second compound 0.1 µM, first compound 0.1 µM
[9] = second compound 0.1 µM, first compound 0.316 µM
[10] = second compound 0.1 µM, first compound 1 µM
[11] = second compound 0.1 µM, first compound 3.16 µM
[12] = second compound 0.1 µM, first compound 10 µM
[13] = second compound 0.316 µM, first compound 0.0316 µM
[14] = second compound 0.316 µM, first compound 0.1 µM
[15] = second compound 0.316 µM, first compound 0.316 µM
[16] = second compound 0.316 µM, first compound 1 µM
[17] = second compound 0.316 µM, first compound 3.16 µM
[18] = second compound 0.316 µM, first compound 10 µM
[19] = second compound 1 µM, first compound 0.0316 µM
[20] = second compound 1 µM, first compound 0.1 µM
[21] = second compound 1 µM, first compound 0.316 µM
[22] = second compound 1 µM, first compound 1 µM
[23] = second compound 1 µM, first compound 3.16 µM
[24] = second compound 1 µM, first compound 10 µM
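Also: spheroids exposed to agents for seven days before readout.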
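For viability, T/C in this document: percent of vehicle DMSO control viability so 100% = untreated growth.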

Compound `CC(Cn1ccc(-c2ccc(C#N)c(Cl)c2)n1)NC(=O)c1cc(C(C)O)[nH]n1` (centres undefined) + CC(Nc1ncnc2nc[nH]c12)c1cc2cccc(Cl)c2c(=O)n1-c1ccccc1 has an IC50 (second compound 0.0316 µM) greater than 10 µM, an IC50 (second compound 0.1 µM) greater than 10 µM and an IC50 (second compound 0.316 µM) greater than 10 µM. The IC50 (second compound 1 µM) was greater than 10 µM, the IC50 (second compound 3.16 µM) was greater than 10 µM and the IC50 (second compound 10 µM) was greater than 10 µM. For the same compound, the viability, T/C [1] was 105%, the viability, T/C [2] was 78.9% and the viability, T/C [3] was 96.6%. For the same compound, the viability, T/C [4] was 87%, the viability, T/C [5] was 81.7% and the viability, T/C [6] was 76.3%. The viability, T/C [7] was 86.8%, the viability, T/C [8] was 89.3% and the viability, T/C [9] was 82.6%. The viability, T/C [10] was 83%, the viability, T/C [11] was 94.5% and the viability, T/C [12] was 70.2%. It also gave a viability, T/C [13] of 83.2%, a viability, T/C [14] of 78.5% and a viability, T/C [15] of 88.9%. It also gave a viability, T/C [16] of 88.8%, a viability, T/C [17] of 85.5% and a viability, T/C [18] of 85.9%. The viability, T/C [19] was 92.2%, the viability, T/C [20] was 76.3% and the viability, T/C [21] was 89.6%. It also gave a viability, T/C [22] of 80.5%, a viability, T/C [23] of 77% and a viability, T/C [24] of 70.3%. For the same compound, the viability, T/C (second compound 3.16 µM, first compound 0.0316 µM) was 74%, the viability, T/C (second compound 3.16 µM, first compound 0.1 µM) was 73.7% and the viability, T/C (second compound 3.16 µM, first compound 0.316 µM) was 79.2%. The viability, T/C (second compound 3.16 µM, first compound 1 µM) was 72.5%, the viability, T/C (second compound 3.16 µM, first compound 3.16 µM) was 75% and the viability, T/C (second compound 3.16 µM, first compound 10 µM) was 74.2%. It also gave a viability, T/C (second compound 10 µM, first compound 0.0316 µM) of 60.9%, a viability, T/C (second compound 10 µM, first compound 0.1 µM) of 55.3% and a viability, T/C (second compound 10 µM, first compound 0.316 µM) of 73.4%. For the same compound, the viability, T/C (second compound 10 µM, first compound 1 µM) was 55.4%, the viability, T/C (second compound 10 µM, first compound 3.16 µM) was 65.4% and the viability, T/C (second compound 10 µM, first compound 10 µM) was 56.8%.

For `CC1(C)CCC(Nc2ncc(C(F)(F)F)c(-c3c[nH]c4c(P(C)(C)=O)c(C#N)ccc34)n2)CN1` (centres undefined) + CC(Nc1ccc2c(c1)OCCn1cc(N3C(=O)OCC3C(F)F)nc1-2)C(N)=O, the IC50 (second compound 0.00316 µM) was less than 0.0316 µM, the IC50 (second compound 0.01 µM) was less than 0.0316 µM and the IC50 (second compound 0.0316 µM) was less than 0.0316 µM. The IC50 (second compound 0.1 µM) was less than 0.0316 µM, the IC50 (second compound 0.316 µM) was less than 0.0316 µM and the IC50 (second compound 1 µM) was less than 0.0316 µM. It also gave a viability, T/C (second compound 0.00316 µM, first compound 0.0316 µM) of 27.2%, a viability, T/C (second compound 0.00316 µM, first compound 0.1 µM) of 24.2% and a viability, T/C (second compound 0.00316 µM, first compound 0.316 µM) of 29.6%. The viability, T/C (second compound 0.00316 µM, first compound 1 µM) was 24.5%, the viability, T/C (second compound 0.00316 µM, first compound 3.16 µM) was 26.2% and the viability, T/C (second compound 0.00316 µM, first compound 10 µM) was 5.32%. It also gave a viability, T/C (second compound 0.01 µM, first compound 0.0316 µM) of 27.5%, a viability, T/C (second compound 0.01 µM, first compound 0.1 µM) of 27.6% and a viability, T/C (second compound 0.01 µM, first compound 0.316 µM) of 25.7%. The viability, T/C (second compound 0.01 µM, first compound 1 µM) was 25.6%, the viability, T/C (second compound 0.01 µM, first compound 3.16 µM) was 23.5% and the viability, T/C (second compound 0.01 µM, first compound 10 µM) was 4.5%. It also gave a viability, T/C [1] of 26.8%, a viability, T/C [2] of 29.1% and a viability, T/C [3] of 22.2%. The viability, T/C [4] was 23.8%, the viability, T/C [5] was 27.3% and the viability, T/C [6] was 4.59%. It also gave a viability, T/C [7] of 24.1%, a viability, T/C [8] of 20.6% and a viability, T/C [9] of 22.1%. For the same compound, the viability, T/C [10] was 24.8%, the viability, T/C [11] was 22.9% and the viability, T/C [12] was 3.21%. For the same compound, the viability, T/C [13] was 20.6%, the viability, T/C [14] was 21% and the viability, T/C [15] was 21.1%. For the same compound, the viability, T/C [16] was 19.5%, the viability, T/C [17] was 20.2% and the viability, T/C [18] was 3.5%. The viability, T/C [19] was 18.4%, the viability, T/C [20] was 19.3% and the viability, T/C [21] was 16.6%. It also gave a viability, T/C [22] of 19.6%, a viability, T/C [23] of 18.2% and a viability, T/C [24] of 2.31%.
